Assay results as given in the CheMixHub viscosity set.
± gives the uncertainty stated by the source.

Experiment: xn = mol fraction of the nth substance listed

Compound: NCCO + CC(C)O
- viscosity (303.15 K, 100 kPa, x1 = 0.1): 2.11 ± 0.04 mPa·s
- viscosity (303.15 K, 100 kPa, x1 = 0.2): 2.53 ± 0.04 mPa·s
- viscosity (303.15 K, 100 kPa, x1 = 0.3): 3.08 ± 0.05 mPa·s
- viscosity (303.15 K, 100 kPa, x1 = 0.4): 3.86 ± 0.07 mPa·s
- viscosity (303.15 K, 100 kPa, x1 = 0.5): 4.9 ± 0.08 mPa·s
- viscosity (303.15 K, 100 kPa, x1 = 0.6): 6.12 ± 0.11 mPa·s
- viscosity (303.15 K, 100 kPa, x1 = 0.7): 7.7 ± 0.13 mPa·s
- viscosity (303.15 K, 100 kPa, x1 = 0.8): 9.55 ± 0.17 mPa·s
- viscosity (303.15 K, 100 kPa, x1 = 0.9): 11.9 ± 0.2 mPa·s
- viscosity (313.15 K, 100 kPa, x1 = 0.1): 1.63 ± 0.03 mPa·s
- viscosity (313.15 K, 100 kPa, x1 = 0.2): 1.92 ± 0.03 mPa·s
- viscosity (313.15 K, 100 kPa, x1 = 0.3): 2.31 ± 0.04 mPa·s
- viscosity (313.15 K, 100 kPa, x1 = 0.4): 2.88 ± 0.05 mPa·s
- viscosity (313.15 K, 100 kPa, x1 = 0.5): 3.55 ± 0.06 mPa·s
- viscosity (313.15 K, 100 kPa, x1 = 0.6): 4.35 ± 0.08 mPa·s
- viscosity (313.15 K, 100 kPa, x1 = 0.7): 5.37 ± 0.09 mPa·s
- viscosity (313.15 K, 100 kPa, x1 = 0.8): 6.54 ± 0.12 mPa·s
- viscosity (313.15 K, 100 kPa, x1 = 0.9): 7.97 ± 0.14 mPa·s
- viscosity (323.15 K, 100 kPa, x1 = 0.1): 1.27 ± 0.02 mPa·s
- viscosity (323.15 K, 100 kPa, x1 = 0.2): 1.49 ± 0.03 mPa·s
- viscosity (323.15 K, 100 kPa, x1 = 0.3): 1.78 ± 0.03 mPa·s
- viscosity (323.15 K, 100 kPa, x1 = 0.4): 2.21 ± 0.04 mPa·s
- viscosity (323.15 K, 100 kPa, x1 = 0.5): 2.65 ± 0.05 mPa·s
- viscosity (323.15 K, 100 kPa, x1 = 0.6): 3.22 ± 0.06 mPa·s
- viscosity (323.15 K, 100 kPa, x1 = 0.7): 3.89 ± 0.07 mPa·s
- viscosity (323.15 K, 100 kPa, x1 = 0.8): 4.69 ± 0.08 mPa·s
- viscosity (323.15 K, 100 kPa, x1 = 0.9): 5.64 ± 0.1 mPa·s

Compound: NCCO + C1COCCO1
- viscosity (298.15 K, 101 kPa, x2 = 0.0597): 16.05 ± 0.49 mPa·s
- viscosity (318.15 K, 101 kPa, x2 = 0.5716): 2.255 ± 0.069 mPa·s

Compound: C=CCc1ccc2c(c1)OCO2 + CCCCCOC(C)=O
- viscosity (298.15 K, 101 kPa, x1 = 0.053): 0.833 ± 0.01 mPa·s
- viscosity (298.15 K, 101 kPa, x1 = 0.232): 1.01 ± 0.013 mPa·s

Compound: CCC(=O)CC + CCOC(=O)OCC
- viscosity (303.15 K, 101 kPa, x2 = 0.0893): 0.452 ± 0.013 mPa·s
- viscosity (303.15 K, 101 kPa, x2 = 0.1498): 0.468 ± 0.014 mPa·s
- viscosity (303.15 K, 101 kPa, x2 = 0.2601): 0.496 ± 0.015 mPa·s
- viscosity (303.15 K, 101 kPa, x2 = 0.3555): 0.521 ± 0.015 mPa·s
- viscosity (303.15 K, 101 kPa, x2 = 0.4667): 0.55 ± 0.016 mPa·s
- viscosity (303.15 K, 101 kPa, x2 = 0.5689): 0.578 ± 0.016 mPa·s
- viscosity (303.15 K, 101 kPa, x2 = 0.6701): 0.606 ± 0.017 mPa·s
- viscosity (303.15 K, 101 kPa, x2 = 0.7565): 0.631 ± 0.018 mPa·s
- viscosity (303.15 K, 101 kPa, x2 = 0.8858): 0.668 ± 0.019 mPa·s
- viscosity (303.15 K, 101 kPa, x2 = 0.9501): 0.686 ± 0.019 mPa·s
- viscosity (308.15 K, 101 kPa, x2 = 0.0893): 0.417 ± 0.013 mPa·s
- viscosity (308.15 K, 101 kPa, x2 = 0.1498): 0.431 ± 0.013 mPa·s
- viscosity (308.15 K, 101 kPa, x2 = 0.2601): 0.457 ± 0.014 mPa·s
- viscosity (308.15 K, 101 kPa, x2 = 0.3555): 0.481 ± 0.014 mPa·s
- viscosity (308.15 K, 101 kPa, x2 = 0.4667): 0.509 ± 0.015 mPa·s
- viscosity (308.15 K, 101 kPa, x2 = 0.5689): 0.535 ± 0.015 mPa·s
- viscosity (308.15 K, 101 kPa, x2 = 0.6701): 0.563 ± 0.016 mPa·s
- viscosity (308.15 K, 101 kPa, x2 = 0.7565): 0.586 ± 0.017 mPa·s
- viscosity (308.15 K, 101 kPa, x2 = 0.8858): 0.622 ± 0.018 mPa·s
- viscosity (308.15 K, 101 kPa, x2 = 0.9501): 0.641 ± 0.018 mPa·s
- viscosity (313.15 K, 101 kPa, x2 = 0.0893): 0.405 ± 0.012 mPa·s
- viscosity (313.15 K, 101 kPa, x2 = 0.1498): 0.417 ± 0.013 mPa·s
- viscosity (313.15 K, 101 kPa, x2 = 0.2601): 0.439 ± 0.013 mPa·s
- viscosity (313.15 K, 101 kPa, x2 = 0.3555): 0.459 ± 0.014 mPa·s
- viscosity (313.15 K, 101 kPa, x2 = 0.4667): 0.484 ± 0.014 mPa·s
- viscosity (313.15 K, 101 kPa, x2 = 0.5689): 0.508 ± 0.015 mPa·s
- viscosity (313.15 K, 101 kPa, x2 = 0.6701): 0.532 ± 0.015 mPa·s
- viscosity (313.15 K, 101 kPa, x2 = 0.7565): 0.554 ± 0.016 mPa·s
- viscosity (313.15 K, 101 kPa, x2 = 0.8858): 0.589 ± 0.017 mPa·s
- viscosity (313.15 K, 101 kPa, x2 = 0.9501): 0.607 ± 0.017 mPa·s

Compound: CC(C)(C)C1CCCCC1 + CCCCCCCCCCCCCCCC
- viscosity (293.15 K, 102 kPa, x1 = 0.1004): 3.31 ± 0.03 mPa·s
- viscosity (293.15 K, 102 kPa, x1 = 0.2003): 3.13 ± 0.03 mPa·s
- viscosity (293.15 K, 102 kPa, x1 = 0.3003): 2.95 ± 0.02 mPa·s
- viscosity (293.15 K, 102 kPa, x1 = 0.4016): 2.77 ± 0.02 mPa·s
- viscosity (293.15 K, 102 kPa, x1 = 0.5003): 2.59 ± 0.02 mPa·s
- viscosity (293.15 K, 102 kPa, x1 = 0.6001): 2.41 ± 0.02 mPa·s
- viscosity (293.15 K, 102 kPa, x1 = 0.7002): 2.23 ± 0.02 mPa·s
- viscosity (293.15 K, 102 kPa, x1 = 0.8001): 2.05 ± 0.02 mPa·s
- viscosity (293.15 K, 102 kPa, x1 = 0.8999): 1.87 ± 0.02 mPa·s
- viscosity (303.15 K, 102 kPa, x1 = 0.1004): 2.63 ± 0.02 mPa·s
- viscosity (303.15 K, 102 kPa, x1 = 0.2003): 2.51 ± 0.02 mPa·s
- viscosity (303.15 K, 102 kPa, x1 = 0.3003): 2.37 ± 0.02 mPa·s
- viscosity (303.15 K, 102 kPa, x1 = 0.4016): 2.24 ± 0.02 mPa·s
- viscosity (303.15 K, 102 kPa, x1 = 0.5003): 2.1 ± 0.02 mPa·s
- viscosity (303.15 K, 102 kPa, x1 = 0.6001): 1.97 ± 0.02 mPa·s
- viscosity (303.15 K, 102 kPa, x1 = 0.7002): 1.83 ± 0.02 mPa·s
- viscosity (303.15 K, 102 kPa, x1 = 0.8001): 1.7 ± 0.02 mPa·s
- viscosity (303.15 K, 102 kPa, x1 = 0.8999): 1.56 ± 0.02 mPa·s
- viscosity (313.15 K, 102 kPa, x1 = 0.1004): 2.15 ± 0.02 mPa·s
- viscosity (313.15 K, 102 kPa, x1 = 0.2003): 2.05 ± 0.02 mPa·s
- viscosity (313.15 K, 102 kPa, x1 = 0.3003): 1.95 ± 0.02 mPa·s
- viscosity (313.15 K, 102 kPa, x1 = 0.4016): 1.85 ± 0.02 mPa·s
- viscosity (313.15 K, 102 kPa, x1 = 0.5003): 1.75 ± 0.02 mPa·s
- viscosity (313.15 K, 102 kPa, x1 = 0.6001): 1.64 ± 0.02 mPa·s
- viscosity (313.15 K, 102 kPa, x1 = 0.7002): 1.54 ± 0.02 mPa·s
- viscosity (313.15 K, 102 kPa, x1 = 0.8001): 1.43 ± 0.02 mPa·s
- viscosity (313.15 K, 102 kPa, x1 = 0.8999): 1.32 ± 0.02 mPa·s
- viscosity (323.15 K, 102 kPa, x1 = 0.1004): 1.78 ± 0.02 mPa·s
- viscosity (323.15 K, 102 kPa, x1 = 0.2003): 1.71 ± 0.02 mPa·s
- viscosity (323.15 K, 102 kPa, x1 = 0.3003): 1.63 ± 0.02 mPa·s
- viscosity (323.15 K, 102 kPa, x1 = 0.4016): 1.56 ± 0.02 mPa·s
- viscosity (323.15 K, 102 kPa, x1 = 0.5003): 1.48 ± 0.02 mPa·s
- viscosity (323.15 K, 102 kPa, x1 = 0.6001): 1.39 ± 0.02 mPa·s
- viscosity (323.15 K, 102 kPa, x1 = 0.7002): 1.31 ± 0.02 mPa·s
- viscosity (323.15 K, 102 kPa, x1 = 0.8001): 1.22 ± 0.02 mPa·s
- viscosity (323.15 K, 102 kPa, x1 = 0.8999): 1.14 ± 0.02 mPa·s

Compound: NCCO.O=S(=O)([N-]S(=O)(=O)C(F)(F)F)C(F)(F)F.[Li+] + O
- viscosity (323.15 K, 101 kPa, x1 = 0.03): 1.2 ± 0.11 mPa·s
- viscosity (323.15 K, 101 kPa, x1 = 0.0597): 2.1 ± 0.19 mPa·s
- viscosity (323.15 K, 101 kPa, x1 = 0.1001): 3.72 ± 0.32 mPa·s
- viscosity (323.15 K, 101 kPa, x1 = 0.1995): 8.33 ± 0.71 mPa·s
- viscosity (323.15 K, 101 kPa, x1 = 0.298): 23.19 ± 2 mPa·s
- viscosity (323.15 K, 101 kPa, x1 = 0.4016): 56.22 ± 4.7 mPa·s
- viscosity (323.15 K, 101 kPa, x1 = 0.4908): 103.5 ± 10 mPa·s
- viscosity (323.15 K, 101 kPa, x1 = 0.6602): 251.5 ± 34 mPa·s
- viscosity (323.15 K, 101 kPa, x1 = 0.8109): 498.1 ± 86 mPa·s
- viscosity (323.15 K, 101 kPa, x1 = 0.8996): 741.6 ± 150 mPa·s

Compound: NCCO + OCCO
- viscosity (293.15 K, 101.33 kPa, x2 = 0.1246): 29.94 ± 0.35 mPa·s
- viscosity (293.15 K, 101.33 kPa, x2 = 0.2055): 32.9 ± 0.38 mPa·s
- viscosity (293.15 K, 101.33 kPa, x2 = 0.2907): 35.07 ± 0.4 mPa·s
- viscosity (293.15 K, 101.33 kPa, x2 = 0.4172): 36.01 ± 0.41 mPa·s
- viscosity (293.15 K, 101.33 kPa, x2 = 0.496): 34.47 ± 0.39 mPa·s
- viscosity (293.15 K, 101.33 kPa, x2 = 0.5176): 33.73 ± 0.38 mPa·s
- viscosity (293.15 K, 101.33 kPa, x2 = 0.6654): 29.06 ± 0.33 mPa·s
- viscosity (293.15 K, 101.33 kPa, x2 = 0.701): 28.14 ± 0.32 mPa·s
- viscosity (293.15 K, 101.33 kPa, x2 = 0.789): 25.17 ± 0.28 mPa·s
- viscosity (293.15 K, 101.33 kPa, x2 = 0.8248): 23.8 ± 0.27 mPa·s
- viscosity (293.15 K, 101.33 kPa, x2 = 0.8691): 22.48 ± 0.25 mPa·s
- viscosity (293.15 K, 101.33 kPa, x2 = 0.9427): 21.11 ± 0.24 mPa·s
- viscosity (293.15 K, 101.33 kPa, x2 = 0.9527): 20.92 ± 0.24 mPa·s
- viscosity (303.15 K, 101.33 kPa, x1 = 0.155): 16.74 ± 0.2 mPa·s
- viscosity (303.15 K, 101.33 kPa, x1 = 0.303): 19.61 ± 0.24 mPa·s
- viscosity (313.15 K, 101.33 kPa, x1 = 0.155): 11.41 ± 0.14 mPa·s
- viscosity (313.15 K, 101.33 kPa, x1 = 0.303): 13.08 ± 0.16 mPa·s
- viscosity (323.15 K, 101.33 kPa, x1 = 0.155): 8.112 ± 0.099 mPa·s
- viscosity (323.15 K, 101.33 kPa, x1 = 0.303): 9.172 ± 0.11 mPa·s
